From patent US10280205B2, “Method for treating cancer with an activated T lymphocyte that selectively recognizes a cancer cell consisting of specific peptide” (immatics biotechnologies GmbH, priority 2015, dated 2019)

Tests used:
[1] = test system: CD8+ T cells; test: In vitro T-cell priming assay with aAPCs loaded with peptide/MHC complexes and anti-CD28, multimer staining readout (in vitro immunogenicity); assay type: cell-based, human; conditions: for Wells positive [%]: HLA-A*02 restricted peptides; for donors (positive donors, in vitro immunogenicity) / wells (positive wells, in vitro immunogenicity): HLA class I peptides; for donors (positive donors, in vitro immunogenicity): percentage of positive donors among evaluable; for wells (positive wells, in vitro immunogenicity): percentage of positive wells
From the text: In order to obtain information regarding the immunogenicity of the TUMAPs of the present invention, the inventors performed investigations using an in vitro T-cell priming assay based on repeated stimulations of CD8+ T cells with artificial antigen presenting cells (aAPCs) loaded with peptide/MHC complexes and anti-CD28 antibody.
In order to perform in vitro stimulations by artificial antigen presenting cells loaded with peptide-MHC complex (pMHC) and anti-CD28 antibody, the inventors first isolated CD8+ T cells from fresh HLA-A*02 leukapheresis products via positive selection using CD8 microbeads (Miltenyi Biotec, Bergisch-Gladbach, Germany) of healthy donors obtained from the University clinics Mannheim, Germany, after informed consent.
PBMCs and isolated CD8+ lymphocytes were incubated in T-cell medium (TCM) until use consisting of RPMI-Glutamax (Invitrogen, Karlsruhe, Germany) supplemented with 10% heat inactivated human AB serum (PAN-Biotech, Aidenbach, Germany), 100 U/ml Penicillin/100 μg/ml Streptomycin (Cambrex, Cologne, Germany), 1 mM sodium pyruvate (CC Pro, Oberdorla, Germany), 20 μg/ml Gentamycin (Cambrex). 2.5 ng/ml IL-7 (PromoCell, Heidelberg, Germany) and 10 U/ml IL-2 (Novartis Pharma, Nurnberg, Germany) were also added to the TCM at this step.
Generation of pMHC/anti-CD28 coated beads, T-cell stimulations and readout was performed in a highly defined in vitro system using four different pMHC molecules per stimulation condition and 8 different pMHC molecules per readout condition.
The purified co-stimulatory mouse IgG2a anti human CD28 Ab 9.3 (Jung et al., 1987) was chemically biotinylated using Sulfo-N-hydroxysuccinimidobiotin as recommended by the manufacturer (Perbio, Bonn, Germany). Beads used were 5.6 μm diameter streptavidin coated polystyrene particles (Bangs Laboratories, Illinois, USA).
pMHC used for positive and negative control stimulations were A*0201/MLA-001 (peptide […] (SEQ ID NO. 664) from modified Melan-A/MART-1) and A*0201/DDX5-001 ([…] from DDX5, SEQ ID NO. 665), respectively.
800.000 beads/200 μl were coated in 96-well plates in the presence of 4×12.5 ng different biotin-pMHC, washed and 600 ng biotin anti-CD28 were added subsequently in a volume of 200 μl. Stimulations were initiated in 96-well plates by co-incubating […] CD8+ T cells with 2×10^5 washed coated beads in 200 μl TCM supplemented with 5 ng/ml IL-12 (PromoCell) for 3 days at 37° C. Half of the medium was then exchanged by fresh TCM supplemented with 80 U/ml IL-2 and incubating was continued for 4 days at 37° C. This stimulation cycle was performed for a total of three times. For the pMHC multimer readout using 8 different pMHC molecules per condition, a two-dimensional combinatorial coding approach was used as previously described (Andersen et al., 2012) with minor modifications encompassing coupling to 5 different fluorochromes. Finally, multimeric analyses were performed by staining the cells with Live/dead near IR dye (Invitrogen, Karlsruhe, Germany), CD8-FITC antibody clone SK1 (BD, Heidelberg, Germany) and fluorescent pMHC multimers. For analysis, a BD LSRII SORP cytometer equipped with appropriate lasers and filters was used. Peptide specific cells were calculated as percentage of total CD8+ cells. Evaluation of multimeric analysis was done using the FlowJo software (Tree Star, Oreg., USA). In vitro priming of specific multimer+ CD8+ lymphocytes was detected by comparing to negative control stimulations.
Exemplary flow cytometry results after TUMAP-specific multimer staining for two peptides of the invention are shown in FIG. 3 together with corresponding negative controls.

[2] = biological target: HLA-A*02:01 (Homo sapiens, UniProt P04439, D140Y/D185E/D98H/E176V/E277Q/G131W/G231S/I119V/I121R/I166T/I218V/L300P/L318F/N151K/N90K/P208A/P217A/Q86G/Q94H/R138H/R169H/T345S); test: MHC binding assay: UV-ligand exchange with beta2m ELISA (exchange yield); conditions: binding to HLA-A*02:01, β2m ELISA
Method in brief: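 Exchange yield reflects how much β2m remains bound, measured by ELISA: streptavidin capture of 100-fold diluted monomers, HRP anti-β2m at 37° C. for 1 h, TMB read at 450 nm. Monomers come from UV cleavage of a conditional HLA-A*02:01 ligand in the presence of the candidate peptide.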

| Substance | Wells positive [%] [1] | Peptide exchange (MHC class I binding score, peptide exchange yield) [2] | donors (positive donors, in vitro immunogenicity) [1] | wells (positive wells, in vitro immunogenicity) [1] |
| --- | --- | --- | --- | --- |
| 2 (SLLEADPFL; listed as Homo sapiens) [compound 2] | “+” (<20% = +) | “+++” (≥50 = +++) |  |  |
| 603 (FLIEPEHVNTV; listed as Homo sapiens) [compound 603] | “+” (<20% = +) | “++” (≥20% = ++) |  |  |
| 60 (SLTIDGIYYV; listed as Homo sapiens) [compound 60] | “++++” (>=70% = ++++) | “++++” (≥75% = ++++) |  |  |
| 460 (AMLEKNYKL; listed as Homo sapiens) [compound 460] | “+” (<20% = +) | “++++” (≥75% = ++++) |  |  |
| 150 (RLWEEGEELEL; listed as Homo sapiens) [compound 150] | “+” (<20% = +) | “+++” (≥50 = +++) |  |  |
| 166 (YLNHLEPPV; listed as Homo sapiens) [compound 166] | “++++” (>=70% = ++++) | “+++” (≥50 = +++) |  |  |
| 652 (TLWYRAPEV; listed as Homo sapiens) [compound 652] |  |  | ++++ (>=70% = ++++) | +++ (50%-69% = +++) |
| 48 (ALAELYEDEV; listed as Homo sapiens) [compound 48] | “+” (<20% = +) | “+++” (≥50 = +++) |  |  |
| 659 (ILFPDIIARA; listed as Homo sapiens) [compound 659] |  |  | +++ (50%-69% = +++) | + (<20% = +) |
| 56 (KLYEGIPVLL; listed as Homo sapiens) [compound 56] | “+” (<20% = +) | “++++” (≥75% = ++++) |  |  |
| 283 (ALYIGDGYVIHLA; listed as Homo sapiens) [compound 283] |  | “+++” (≥50 = +++) | +++ (50%-69% = +++) | + (<20% = +) |
| 662 (KIQEILTQV; listed as Homo sapiens) [compound 662] |  |  | +++ (50%-69% = +++) | + (<20% = +) |
| 113 (GLLPTPLFGV; listed as Homo sapiens) [compound 113] | “+” (<20% = +) | “+++” (≥50 = +++) |  |  |
| 648 (LLWGNAIFL; listed as Homo sapiens) [compound 648] |  |  | +++ (50%-69% = +++) | ++ (20%-49% = ++) |
| 38 (FLLEDDIHVS; listed as Homo sapiens) [compound 38] | “+” (<20% = +) | “+++” (≥50 = +++) |  |  |
| 79 (SLFIGEKAVLL; listed as Homo sapiens) [compound 79] | “+” (<20% = +) | “+++” (≥50 = +++) |  |  |
| 384 (ILFANPNIFV; listed as Homo sapiens) [compound 384] | “+” (<20% = +) | “+++” (≥50 = +++) |  |  |
| 443 (GLWEIENNPTV; listed as Homo sapiens) [compound 443] | “+” (<20% = +) | “+++” (≥50 = +++) |  |  |

| Substance | Wells positive [%] [1] | Peptide exchange (MHC class I binding score, peptide exchange yield) [2] | donors (positive donors, in vitro immunogenicity) [1] | wells (positive wells, in vitro immunogenicity) [1] |
| --- | --- | --- | --- | --- |
| 3 (SLASKLTTL; listed as Homo sapiens) [compound 3] | “+” (<20% = +) | “++++” (≥75% = ++++) |  |  |
| 319 (SLEPQIQPV; listed as Homo sapiens) [compound 319] | “+” (<20% = +) | “++” (≥20% = ++) |  |  |
| 199 (ALQDVPLSSV; listed as Homo sapiens) [compound 199] | “+” (<20% = +) | “+++” (≥50 = +++) |  |  |
| 141 (YLDFSNNRL; listed as Homo sapiens) [compound 141] | “+” (<20% = +) | “++” (≥20% = ++) |  |  |
| 247 (VLLPNDLLEKV; listed as Homo sapiens) [compound 247] | “+” (<20% = +) | “+++” (≥50 = +++) |  |  |
| 511 (FLDPYCSASV; listed as Homo sapiens) [compound 511] | “+” (<20% = +) | “++” (≥20% = ++) |  |  |
| 143 (LLLDITPEI; listed as Homo sapiens) [compound 143] | “+” (<20% = +) | “++++” (≥75% = ++++) |  |  |
| 663 (KIQEMQHFL; listed as Homo sapiens) [compound 663] |  |  | +++ (50%-69% = +++) | + (<20% = +) |
| 36 (YVLEDLEVTV; listed as Homo sapiens) [compound 36] | “+” (<20% = +) | “++” (≥20% = ++) |  |  |
| 8 (FTLGNVVGMYL; listed as Homo sapiens) [compound 8] | “+” (<20% = +) | “++++” (≥75% = ++++) |  |  |
| 11 (KIFEMLEGV; listed as Homo sapiens) [compound 11] | “+” (<20% = +) | “+++” (≥50 = +++) |  |  |
| 499 (KIFDIDEAEEGV; listed as Homo sapiens) [compound 499] | “+” (<20% = +) | “++” (≥20% = ++) |  |  |
| 118 (KLIDNNINV; listed as Homo sapiens) [compound 118] | “+” (<20% = +) | “+++” (≥50 = +++) |  |  |
| 489 (KMWEELPEVV; listed as Homo sapiens) [compound 489] | “+” (<20% = +) | “+++” (≥50 = +++) |  |  |
| 355 (SIQQSIERLLV; listed as Homo sapiens) [compound 355] |  | “++” (≥20% = ++) |  |  |
| 31 (YLAPELFVNV; listed as Homo sapiens) [compound 31] |  | “++” (≥20% = ++) |  |  |
| 238 (YLISFQTHI; listed as Homo sapiens) [compound 238] |  | “+++” (≥50 = +++) |  |  |
